Results from patent US20220235051A1, “DI-FLUORO AZEPANES AS HBV CAPSID ASSEMBLY MODULATORS” (priority 2019, published 2022).
Read-outs that look alike come from different tables or passages of the source.

Tested on: HBV
Test: HBV replication inhibition assay (BDNA assay) in HepG2.2.15 cells
Assay type: cell-based
Conditions: read-out: HepG2.2.15 EC50 HBV DNA
Description: HBV replication inhibition by the disclosed compounds were determined in cells infected or transfected with HBV or cells with stably integrated HBV, such as HepG2.2.15 cells (Sells et al. 1987). In this example, HepG2.2.15 cells were maintained in cell culture medium containing 10% fetal bovine serum (FBS), Geneticin, L-glutamine, penicillin and streptomycin. HepG2.2.15 cells were seeded in 96-well plates at a density of 40,000 cells/well and were treated with serially diluted compounds at a final DMSO concentration of 0.5% either alone or in combination by adding drugs in a checker box format. Cells were incubated with compounds for three days, after which medium was removed and fresh medium containing compounds was added to cells and incubated for another three days. At day 6, supernatant was removed and treated with DNase at 37° C. for 60 minutes, followed by enzyme inactivation at 75° C. for 15 minutes. Encapsidated HBV DNA was released from the virions and covalently linked HBV polymerase by incubating in lysis buffer (Affymetrix QS0010) containing 2.5 μg proteinase K at 50° C. for 40 minutes. HBV DNA was denatured by addition of 0.2 M NaOH and detected using a branched DNA (BDNA) QuantiGene assay kit according to manufacturer recommendation (Affymetrix). HBV DNA levels were also quantified using qPCR, based on amplification of encapsidated HBV DNA extraction with QuickExtraction Solution (Epicentre Biotechnologies) and amplification of HBV DNA using HBV specific PCR probes that can hybridize to HBV DNA and a fluorescently labeled probe for quantitation. In addition, cell viability of HepG2.2.15 cells incubated with test compounds alone or in combination was determined by using CellTitre-Glo reagent according to the manufacturer protocol (Promega). The mean background signal from wells containing only culture medium was subtracted from all other samples, and percent inhibition at each compound concentration was calculated by normalizing to signals from HepG2.2.15 cells treated with 0.5% DMSO using equation E1.
% inhibition=(DMSOave−Xi)/DMSOave×100% E1
where DMSOave is the mean signal calculated from the wells that were treated with DMSO control (0% inhibition control) and Xi is the signal measured from the individual wells. EC50 values, effective concentrations that achieved 50% inhibitory effect, were determined by non-linear fitting using Graphpad Prism software (San Diego, Calif.) and equation E2.
Y=Ymin+(Ymax−Ymin)/(1+10(Log EC50−X)×HillSlope) E2
where Y represents percent inhibition values and X represents the logarithm of compound concentrations.
Selected disclosed compounds were assayed in the HBV replication assay (BDNA assay), as described above, and a representative group of these active compounds is shown in Table 3.

[1] = Hepatitis B virus, HepG2.2.15, 144 h, HepG2.2.15 cells, BDNA assay, encapsidated HBV DNA in supernatant at day 6

SMILES: O=C(Nc1ccnc(Br)c1F)N1CCc2nn3c(c2C1)C(F)(F)CC(CO)CC3 (single isomer, unassigned) [Example 133, (S*)-N-(2-Bromo-3-fluoropyridin-4-yl)-11,11-difluoro-9-(hydroxymethyl)-3,4,8,9,10,11-hexahydro-1H-pyrido[4′,3′:3,4]pyrazolo[1,5-a]azepine-2(7H)-carboxamide]
- EC50 [1]: 38 nM

SMILES: COC(=O)NCC1CCC(F)(F)c2c3c(nn2C1)CCN(C(=O)Nc1ccc(F)c(C#N)c1)C3 (centres unmarked) [Example 53, Methyl ((2-((3-cyano-4-fluorophenyl)carbamoyl)-11,11-difluoro-2,3,4,7,8,9,10,11-octahydro-1H-pyrido[4′,3′:3,4]pyrazolo[1,5-a]azepin-8-yl)methyl)-carbamate]
- EC50 [1]: 10 nM

SMILES: C#CC1(O)CCC(F)(F)c2c3c(nn2C1)CCN(C(=O)Nc1ccc(F)c(C#N)c1)C3 (centres unmarked) [Example 58, N-(3-Cyano-4-fluorophenyl)-8-ethynyl-11,11-di fluoro-8-hydroxy-3,4,8,9,10,11-hexahydro-1H-pyrido[4′,3′:3,4]pyrazolo[1,5-a]azepine-2(7H)-carboxamide]
- EC50 [1]: 37 nM

SMILES: C#CC1(O)CCC(F)(F)c2c3c(nn2C1)CCN(C(=O)Nc1ccnc(Br)c1F)C3 (single isomer, unassigned) [Example 63, (R*)-N-(2-Bromo-3-fluoropyridin-4-yl)-8-ethynyl-11,11-difluoro-8-hydroxy-3,4,8,9,10,11-hexahydro-1H-pyrido[4′,3′:3,4]pyrazolo[1,5-a]azepine-2(7H)-carboxamide]
- EC50 [1]: 119 nM

SMILES: N#Cc1cc(NC(=O)N2CCc3nn4c(c3C2)C(F)(F)CC[C@@H](O)C4)ccc1F [Example 8, (R)-N-(3-Cyano-4-fluorophenyl)-11,11-difluoro-8-hydroxy-3,4,8,9,10,11-hexahydro-1H-pyrido[4′,3′:3,4]pyrazolo[1,5-a]azepine-2(7H)-carboxamide]
- EC50 [1]: 10 nM

SMILES: C[C@@H]1Cc2nn3c(c2CN1C(=O)Nc1ccnc(Br)c1F)C(F)(F)CC[C@H](O)C3 [Example 72, (3R,8S)-N-(2-Bromo-3-fluoropyridin-4-yl)-11,11-difluoro-8-hydroxy-3-methyl-3,4,8,9,10,11-hexahydro-1H-pyrido[4′,3′:3,4]pyrazolo[1,5-a]azepine-2(7H)-carboxamide]
- EC50 [1]: 9 nM

SMILES: C[C@@H]1Cc2nn3c(c2CN1C(=O)Nc1ccnc(C(F)F)c1F)C(F)(F)CC[C@H](O)C3 [Example 74, (3R,8S)-N-(2-(Difluoromethyl)-3-fluoropyridin-4-yl)-11,11-difluoro-8-hydroxy-3-methyl-3,4,8,9,10,11-hexahydro-1H-pyrido[4′,3′:3,4]pyrazolo[1,5-a]azepine-2(7H)-carboxamide]
- EC50 [1]: 11 nM

SMILES: N#Cc1cc(NC(=O)N2CCc3nn4c(c3C2)C(F)(F)CC[C@H](OCC(F)F)C4)ccc1F [Example 13, (S)-N-(3-Cyano-4-fluorophenyl)-8-(2,2-difluoroethoxy)-11,11-difluoro-3,4,8,9,10,11-hexahydro-1H-pyrido[4′,3′:3,4]pyrazolo[1,5-a]azepine-2(7H)-carboxamide]
- EC50 [1]: 42 nM

SMILES: O=C(Nc1ccnc(Br)c1F)N1CCc2nn3c(c2C1)C(F)(F)CC(CO)CC3 (single isomer, unassigned) [Example 135, (R*)-N-(2-Bromo-3-fluoropyridin-4-yl)-11,11-difluoro-9-(hydroxymethyl)-3,4,8,9,10,11-hexahydro-1H-pyrido[4′,3′:3,4]pyrazolo[1,5-a]azepine-2(7H)-carboxamide]
- EC50 [1]: 19 nM

SMILES: C[C@@H]1Cc2nn3c(c2CN1C(=O)Nc1ccnc(Br)c1F)C(F)(F)CCC(O)(CF)C3 (single isomer, unassigned) [Example 84, (3R,8R*)-N-(2-Bromo-3-fluoropyridin-4-yl)-11,11-difluoro-8-(fluoromethyl)-8-hydroxy-3-methyl-3,4,8,9,10,11-hexahydro-1H-pyrido[4′,3′:3,4]pyrazolo[1,5-a]azepine-2(7H)-carboxamide]
- EC50 [1]: 69 nM

SMILES: C[C@@]1(O)CCC(F)(F)c2c3c(nn2C1)CCN(C(=O)Nc1ccc(F)c(C#N)c1)C3 (stereo in doubt) [Example 55, N-(3-Cyano-4-fluorophenyl)-11,11-difluoro-8-hydroxy-8-methyl-3,4,8,9,10,11-hexahydro-1H-pyrido[4′,3′:3,4]pyrazolo[1,5-a]azepine-2(7H)-carboxamide]
- EC50 [1]: 29 nM

SMILES: CC(=O)NCC1CCC(F)(F)c2c3c(nn2C1)CCN(C(=O)Nc1ccc(F)c(C#N)c1)C3 (centres unmarked) [Example 49]
- EC50 [1]: 33 nM

SMILES: C=C1CCC(F)(F)c2c3c(nn2C1)CCN(C(=O)Nc1ccc(F)c(C(F)(F)F)c1)C3 [Example 2, 11,11-Difluoro-N-(4-fluoro-3-(trifluoromethyl)phenyl)-8-methylene-3,4,8,9,10,11-hexahydro-1H-pyrido[4′,3′:3,4]pyrazolo[1,5-a]azepine-2(7H)-carboxamide]
- EC50 [1]: 51 nM

SMILES: C[C@@H]1Cc2nn3c(c2CN1C(=O)Nc1ccc(F)c(C(F)(F)F)c1)C(F)(F)CC[C@H](O)C3 [Example 73, (3R,8S)-11,11-Difluoro-N-(4-fluoro-3-(trifluoromethyl)phenyl)-8-hydroxy-3-methyl-3,4,8,9,10,11-hexahydro-1H-pyrido[4′,3′:3,4]pyrazolo[1,5-a]azepine-2(7H)-carboxamide]
- EC50 [1]: 2 nM

SMILES: O=C(Nc1ccnc(Br)c1F)N1CCc2nn3c(c2C1)C(F)(F)CCC(CNC(=O)C(F)(F)F)C3 (centres unmarked) [Example 52, N-(2-Bromo-3-fluoropyridin-4-yl)-11,11-difluoro-8-((2,2,2-trifluoroacetamido)methyl)-3,4,8,9,10,11-hexahydro-1H-pyrido[4′,3′:3,4]pyrazolo[1,5-a]azepine-2(7H)-carboxamide]
- EC50 (Hepatitis B virus, HepG2.2.15, 144 h): 102 nM

SMILES: C[C@@H]1Cc2nn3c(c2CN1C(=O)Nc1ccnc(Br)c1F)C(F)(F)CC[C@@H](O)C3 [Example 68, (3R,8R)-N-(2-Bromo-3-fluoropyridin-4-yl)-11,11-di fluoro-8-hydroxy-3-methyl-3,4,8,9,10,11-hexahydro-1H-pyrido[4′,3′:3,4]pyrazolo[1,5-a]azepine-2(7H)-carboxamide]
- EC50 [1]: 21 nM

SMILES: O=C(Nc1ccnc(Br)c1F)N1CCc2nn3c(c2C1)C(F)(F)CC[C@H](O)C3 [Example 5, (S)-N-(2-Bromo-3-fluoropyridin-4-yl)-11,11-difluoro-8-hydroxy-3,4,8,9,10,11-hexahydro-1H-pyrido[4′,3′:3,4]pyrazolo[1,5-a]azepine-2(7H)-carboxamide]
- EC50 [1]: 57 nM

SMILES: C[C@@H]1Cc2nn3c(c2CN1C(=O)Nc1ccc(F)c(C#N)c1)C(F)(F)C[C@@H](CO)CC3 (relative stereo) [Example 132]
- EC50 [1]: 7 nM

SMILES: C=C1CCC(F)(F)c2c3c(nn2C1)CCN(C(=O)Nc1ccc(F)c(C#N)c1)C3 [Example 1, N-(3-Cyano-4-fluorophenyl)-11,11-difluoro-8-methylene-3,4,8,9,10,11-hexahydro-1H-pyrido[4′,3′:3,4]pyrazolo[1,5-a]azepine-2(7H)-carboxamide]
- EC50 [1]: 44 nM

SMILES: C[C@@H]1Cc2nn3c(c2CN1C(=O)Nc1ccc(F)c(C#N)c1)C(F)(F)CCC(CO)C3 (single isomer, unassigned) [Example 75, (3R,8S*)-N-(3-Cyano-4-fluorophenyl)-11,11-difluoro-8-(hydroxymethyl) -3-methyl-3,4,8,9,10,11-hexahydro-1H-pyrido[4′,3′:3,4]pyrazolo[1,5-a]azepine-2(7H)-carboxamide]
- EC50 (HepG2.2.15 cells, BDNA assay, encapsidated HBV DNA in supernatant at day 6): 5 nM
